Measured values from the supplement of paper PMC10307832.

Columns and labels:
Test in all cases: relative viability (nuclei count vs DMSO), 5 days (fraction); higher = more cells survive
[1] = test system: NCI-H1623
Summary of the method: (§1)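 After 5 days of treatment, lung cancer cells in 1536-well plates were fixed and stained in a single step (final 0.05% Triton X-100, 1% formaldehyde, 1 ug/ml Hoechst) and their nuclei counted on 4× images. Treatment had been applied by pin tool the day after seeding as one drug alone or as a fixed anchor-drug dose with five library-drug doses (not always all listed) in √10 steps. Relative viability is the nuclei count of treated wells divided by that of vehicle wells, and values are medians of duplicate plates.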

[2] = test system: NCI-H1651
Summary of the method: as §1

[3] = test system: NCI-H1944
Summary of the method: as §1

[4] = test system: NCI-H520
Summary of the method: as §1

[5] = test system: NCI-H650
Summary of the method: as §1

[6] = test system: NCI-H838
Summary of the method: as §1

[7] = test system: PC-3 [JPC-3]
Summary of the method: as §1

[8] = test system: RERF-LC-KJ
Summary of the method: as §1

In the case of Nc1ccn([C@@H]2O[C@H](CO)[C@@H](O)[C@@H]2O)c(=O)n1 [Cytarabine] + CCNC(=O)c1noc(-c2cc(C(C)C)c(O)cc2O)c1-c1ccc(CN2CCOCC2)cc1 [Luminespib] (partner 0.01 µM), the relative viability ([1]; first compound 0.005 µM) is reported as 0.321, the relative viability ([1]; first compound 0.01581 µM) is reported as 0.361 and the relative viability ([1]; first compound 0.05 µM) is reported as 0.316. It also gave a relative viability ([1]; first compound 0.1581 µM) of 0.232, a relative viability ([1]; first compound 0.5 µM) of 0.234 and a relative viability ([2]; first compound 0.005 µM) of 0.751. The relative viability ([2]; first compound 0.01581 µM) was 1.02, the relative viability ([2]; first compound 0.05 µM) was 0.954 and the relative viability ([2]; first compound 0.1581 µM) was 0.705. For the same compound, the relative viability ([2]; first compound 0.5 µM) was 0.262, the relative viability ([3]; first compound 0.005 µM) was 0.619 and the relative viability ([3]; first compound 0.01581 µM) was 0.343. The relative viability ([3]; first compound 0.05 µM) was 0.264, the relative viability ([3]; first compound 0.1581 µM) was 0.185 and the relative viability ([3]; first compound 0.5 µM) was 0.134. The relative viability ([4]; first compound 0.005 µM) was 0.218, the relative viability ([4]; first compound 0.01581 µM) was 0.216 and the relative viability ([4]; first compound 0.05 µM) was 0.2. For the same compound, the relative viability ([4]; first compound 0.1581 µM) was 0.233, the relative viability ([4]; first compound 0.5 µM) was 0.223 and the relative viability ([5]; first compound 0.005 µM) was 0.606. For the same compound, the relative viability ([5]; first compound 0.01581 µM) was 0.485, the relative viability ([5]; first compound 0.05 µM) was 0.253 and the relative viability ([5]; first compound 0.1581 µM) was 0.187. For the same compound, the relative viability ([5]; first compound 0.5 µM) was 0.17, the relative viability ([6]; first compound 0.005 µM) was 0.234 and the relative viability ([6]; first compound 0.01581 µM) was 0.3. For the same compound, the relative viability ([6]; first compound 0.05 µM) was 0.303, the relative viability ([6]; first compound 0.1581 µM) was 0.186 and the relative viability ([6]; first compound 0.5 µM) was 0.167. The relative viability ([7]; first compound 0.005 µM) was 0.754, the relative viability ([7]; first compound 0.01581 µM) was 0.73 and the relative viability ([7]; first compound 0.05 µM) was 0.782. It also gave a relative viability ([7]; first compound 0.1581 µM) of 0.453, a relative viability ([7]; first compound 0.5 µM) of 0.551 and a relative viability ([8]; first compound 0.005 µM) of 0.968. The relative viability ([8]; first compound 0.01581 µM) was 1.04, the relative viability ([8]; first compound 0.05 µM) was 0.977 and the relative viability ([8]; first compound 0.1581 µM) was 0.38. For the same compound, the relative viability ([8]; first compound 0.5 µM) was 0.416.
Nc1ccn([C@@H]2O[C@H](CO)[C@@H](O)[C@@H]2O)c(=O)n1 [Cytarabine] + Cc1nc(Nc2ncc(C(=O)Nc3c(C)cccc3Cl)s2)cc(N2CCN(CCO)CC2)n1 [Dasatinib] (partner 0.075 µM) was tested, and the relative viability ([1]; first compound 0.005 µM) was 0.479, the relative viability ([1]; first compound 0.01581 µM) was 0.449 and the relative viability ([1]; first compound 0.05 µM) was 0.286. For the same compound, the relative viability ([1]; first compound 0.1581 µM) was 0.471, the relative viability ([1]; first compound 0.5 µM) was 0.291 and the relative viability ([2]; first compound 0.005 µM) was 0.406. The relative viability ([2]; first compound 0.01581 µM) was 0.457, the relative viability ([2]; first compound 0.05 µM) was 0.397 and the relative viability ([2]; first compound 0.1581 µM) was 0.179. It also gave a relative viability ([2]; first compound 0.5 µM) of 0.205, a relative viability ([3]; first compound 0.005 µM) of 0.177 and a relative viability ([3]; first compound 0.01581 µM) of 0.123. The relative viability ([3]; first compound 0.05 µM) was 0.117, the relative viability ([3]; first compound 0.1581 µM) was 0.0903 and the relative viability ([3]; first compound 0.5 µM) was 0.0942. The relative viability ([4]; first compound 0.005 µM) was 0.218, the relative viability ([4]; first compound 0.01581 µM) was 0.199 and the relative viability ([4]; first compound 0.05 µM) was 0.263. The relative viability ([4]; first compound 0.1581 µM) was 0.187, the relative viability ([4]; first compound 0.5 µM) was 0.142 and the relative viability ([5]; first compound 0.005 µM) was 0.474. The relative viability ([5]; first compound 0.01581 µM) was 0.399, the relative viability ([5]; first compound 0.05 µM) was 0.257 and the relative viability ([5]; first compound 0.1581 µM) was 0.213. For the same compound, the relative viability ([5]; first compound 0.5 µM) was 0.165, the relative viability ([6]; first compound 0.005 µM) was 0.281 and the relative viability ([6]; first compound 0.01581 µM) was 0.274. It also gave a relative viability ([6]; first compound 0.05 µM) of 0.229, a relative viability ([6]; first compound 0.1581 µM) of 0.214 and a relative viability ([6]; first compound 0.5 µM) of 0.164. For the same compound, the relative viability ([7]; first compound 0.005 µM) was 0.952, the relative viability ([7]; first compound 0.01581 µM) was 0.884 and the relative viability ([7]; first compound 0.05 µM) was 1.01. The relative viability ([7]; first compound 0.1581 µM) was 0.63, the relative viability ([7]; first compound 0.5 µM) was 0.603 and the relative viability ([8]; first compound 0.005 µM) was 0.689. It also gave a relative viability ([8]; first compound 0.01581 µM) of 0.646, a relative viability ([8]; first compound 0.05 µM) of 0.524 and a relative viability ([8]; first compound 0.1581 µM) of 0.409. The relative viability ([8]; first compound 0.5 µM) was 0.281.
